Experimental data: patent US9095585B2, “Bioavailable compositions of amorphous piperidinyl compounds” (Bristol-Myers Squibb Company, priority 2011, dated 2015)

Assay: Physicochemical properties of Compound I (ionization, aqueous solubility)

ionization (pH range of 2-11): non-ionizable
aqueous solubility (room temperature): low
Compound: CC(C)[C@@H](NC(=O)NCC(C)(C)O)C(=O)N1CC[C@](O)(c2ccc(Cl)cc2)C(C)(C)C1 [Compound I]
